Measurements: patent publication US20260327628A1, “AN RNA APTAMER THAT BINDS TO ASP7967 OR AN ANALOGUE THEREOF” (priority 2022, published 2026)
Several values for one entry are separate records, joined by “and”; a condition that tells them apart may be missing. Equal entries are not always repeated. Entries after “also recorded” stand apart in the source; their conditions may differ. Where two headings read alike, the source gives them in different places.

How the values were obtained:
hEPO expression in mice = experiment: In vivo hEPO assay in mice injected with AAV8 vectors; set-up: species or system BALB/c cAJc1 mice
Protocol: For AAV production, 293T cells seeded in cellstack5 (Corning) were cotransfected using PEI MAX (Polysciences Inc) with 227.9 μg of the plasmid encoding AAV8 replication and capsid proteins, 455.8 μg of the plasmid encoding helper proteins and 227.9 μg of the pAAV-CMV-hEPO-a8c or -control. At 6 days after transfection, cells and supernatants were harvested, then filtered and concentrated by KrosFlo Research Ili (Spectrum Labs, Inc) for AAV purification by affinity chromatography using AKTA avant 25 (GE healthcare). Then, the virus solutions were ultracentrifuged and dialyzed. Titers of the AAV solutions were determined by quantitative PCR using the AAVpro Titration Kit (for Real-Time PCR) Ver.2 (Takara).
For in vivo animal experiments, 7-week-old male BALB/c cAJc1 mice (CLEA Japan Inc.) were intravenously injected with 200 μl of PBS (as the control group) or purified AAV8 particles (3.0×10^10 virus genome (vg) per mouse) carrying hEPO gene with or without the CPP-a8c-AC17-4 riboswitch. After 13 days from AAV injection, mice were subjected to 24 μl blood collection from tail vein and the blood samples were immediately diluted with 96 μl. At 24 h after the blood collection, the mice were orally administrated 100 mg kg^−1 of ASP7967 in 0.5% methyl cellulose (FUJIFILM Wako Pure Chemical Corp) or 0.5% methyl cellulose as the vehicle solution. At 2, 4, 6, 8 and 24 h after the ASP7967 administration, blood samples were collected as described above. The blood samples were incubated on ice, then centrifuged at 1,200×g for 15 min at 4° C. to collect serum samples. The serum samples were stored at −80° C. and used for measurement of serum hEPO concentration by ELISA.
Next, we studied the riboswitch potency and functionality in vivo. […] Mice were intravenously injected with viral vectors AAV8-CMV-hEPO-control, AAV8-CMV-hEPO-a8c-AC17-4-CPP, or saline (WT). Two weeks after AAV injection, 100 mg kg^−1 dose of ASP7967 was orally administered to induce expression from the riboswitch-regulated vector. Blood was drawn before and at multiple time points after the oral administration (FIG. 9c). Secreted hEPO levels in the serum of the mice injected with the control AAV (AAV8-CMV-hEPO-control) were around 550 mIU ml^−1, and administration of 100 mg kg^−1 dose of the ligand had no effect during the observed time period (FIG. 9d, upper right). On the other hand, upon administration of 100 mg kg^−1 dose of the ligand, hEPO secretion levels were induced by riboswitch-regulated vector (AAV8-CMV-hEPO-a8c-AC17-4-CPP) reaching approximately 115 mIU mL-1 at 6-8 h postdosing, corresponding to a 7.2-fold increase over the mice dosed with the vehicle (FIG. 9d, lower left).

[1] = Pharmacokinetics of ASP7967 in mice after oral administration (LC-MS/MS); assay type: in vivo, mice (BALB/c cAJc1); conditions: for Tmax: first sampling time point
Protocol: FIG. 10 Pharmacokinetics of ASP7967 in mice after oral administration. After oral administration at 100 mg kg^−1 to mice (BALB/c cAJc1), plasma and liver concentrations of ASP7967 were measured using liquid chromatography-tandem mass spectrometry (LC-MS/MS). ASP7967 concentrations in both plasma and liver reached maxima within the first sampling time point of 1 h and then decreased over time.

[2] = test system: potassium channel Kv12.2 encoded by the Kcnh3/BEC1 gene; conditions: cited from earlier work

SMILES | hEPO secretion level (serum) (hEPO expression in mice; 100 mg kg^−1 oral, 6-8 h postdosing, AAV8-CMV-hEPO-a8c-AC17-4-CPP) | increase of serum hEPO over vehicle (hEPO expression in mice; 100 mg kg^−1 oral, AAV8-CMV-hEPO-a8c-AC17-4-CPP) | effect of ligand on serum hEPO in mice injected with control AAV (hEPO expression in mice; 100 mg kg^−1 oral, AAV8-CMV-hEPO-control) | serum hEPO / transgene expression as ligand concentration declines (hEPO expression in mice; 100 mg kg^−1 oral, after 6-8 h) | hEPO after readministration of the ligand (hEPO expression in mice; readministration, data not shown) | Tmax ([1]; mouse, liver, 100 mg kg^−1 oral, read-out: time of maximum liver concentration) | Kp ([1]; mouse, liver, 100 mg kg^−1 oral, read-out: concentration ratio of liver to plasma) | Tmax ([1]; mouse, plasma, 100 mg kg^−1 oral, read-out: time of maximum plasma concentration) | concentration in the liver / distribution (in words) ([1]; oral administration) | inhibition of Kv12.2 (KCNH3) in words [2]
Fc1ccc(Nc2nc(NCc3ncccn3)nc(Nc3ccc(F)cc3)n2)cc1 [ASP7967] | approximately 115 mIU mL-1 | 7.2 fold and ~ 7.2 fold | no effect | subsequently decreased; also recorded: diminished as the ligand concentration in the target tissue declined | reactivation of hEPO | ≤ 1 h | 2.7 to 30.6 | ≤ 1 h | high concentration; also recorded: distributed to the liver | –
Fc1ccc(Nc2nc(NCc3ncccn3)nc(Nc3ccccc3)n2)cc1 [ASP2905, reference compound] | – | – | – | – | – | – | – | – | – | potent and selective inhibitor; also recorded: known inhibitor
